Several values for one entry are separate records, joined by “and”; a condition that tells them apart may be missing. Equal entries are not always repeated.
Assays:
[1] = system: human liver cancer cell Hep3B; experiment: MTT survival rate of Hep3B cells, VCP inhibitor and/or M1 virus (Example 2); format: cell-based
Experimental: b) Reaction of MTT (3-(4,5-dimethylthiazol-2-yl)-2,5-diphenyltetrazolium bromide) with succinate dehydrogenase in the cells as follows: 48 hours after culture, 20 μl MTT (5 mg/ml) was added into each well, and was incubated for further 4 hours.
c) Dissolution of formazan particles formed in the cells was accomplished as follows: the supernatant was carefully sucked off, 100 μl/well DMSO was added to dissolve the formed crystals, and was shaken in a microoscillator for 5 minutes. Then, the optical density (OD value) of each well was detected in an enzyme linked detector at a wavelength of 570 nm. The experiments were repeated for 3 times for each group. The survival rate of the cells=OD value of the drug treatment group/OD value of the control group×100%.
Single and double asterisks in FIGS. 2(A) and 2(B) indicate results with one way ANOVA analysis showing a statistical difference with a single asterisk (*) indicating P<0.05 and a double asterisk (**) indicating P<0.01.

[2] = system: human liver cancer cell Hep3B; experiment: Morphological observation by phase contrast microscope (Example 1); format: cell-based; details: Eeyarestatin I 5 μM and/or M1 virus MOI=0.001; 48 hours after treatment
Experimental: b) Cell treatment and morphological observation: The cells in exponential growth phase were selected and added into a DMEM complete culture medium (containing 10% fetal bovine serum, 1% penicillin/streptomycin (Life Technologies)) to prepare a cell suspension. The cells were inoculated into a 24-well culture plate at a density of 2.5×10^4/well. Each well was then treated by addition of Eeyarestatin I (5 μM), M1 virus (MOI=0.001) or Eeyarestatin I (5 μM) plus M1 virus (MOI=0.001) or left untreated as a control.

[3] = system: endoplasmic reticulum stress markers (IRE1, XBP1(S), BiP, p-PERK, p-eIF2a, ATF6, poly-ub; caspase-12, CHOP, p-JNK); experiment: Western blot of endoplasmic reticulum stress markers and ER stress-associated apoptosis in Hep3B (Example 5); format: cell-based, human; details: Eeyarestatin I 5 μM and/or M1 virus MOI=0.001
Experimental: The cells in the exponential growth phase were selected and added into a DMEM complete culture medium to prepare a cell suspension. The cells were inoculated into a 60 mm culture dish at a density of 1×10^6. After 12 hours the cells were completely adherent to the wall. […] The dose was used as follows: M1 virus (MOI=0.001) that infected cells; Eeyarestatin I (5 μM).
After the time of drug treatment was set up, the protein samples were collected to carry out the Western blot for detecting the marker of endoplasmic reticulum stress (IRE1 XBP1(S), BiP, p-PERK, p-eIF2a, ATF6, poly-ub); and the activation of the pathway of endoplasmic reticulum stress-associated apoptosis (caspase-12, CHOP, p-JNK).

SMILES	reduction in cell number ([1]; 5 μM alone)	survival rate of tumor cells ([1]; 5 μM alone, 48 hours, MTT)	morphology of the cells [2]	endoplasmic reticulum stress-associated markers and apoptosis pathway [3]	relative survival rates ([1]; CB-5083 alone compared to combination with M1 (MOI=0.001), 0.124 to 2 μM, FIG. 2(B))
CC1(C)C(N(O)C(=O)Nc2ccc(Cl)cc2)N(c2ccc(Cl)cc2)C(=O)N1CC(=O)N/N=C/C=C/c1ccc([N+](=O)[O-])o1 (centres unmarked) [Eeyarestatin I]	12.8%	87.2% and 78.2%	morphology of the cells was not changed significantly	induce the increase of endoplasmic reticulum stress-associated markers such as IREI, XBPI (S), p-PERK, p-eIF2a	
Cc1cc2c(C(N)=O)cccc2n1-c1nc2c(c(NCc3ccccc3)n1)COCC2 [CB-5083]					significantly higher relative survival rates

From patent US11234968B2, “Use of VCP inhibitor and oncolytic virus in the preparation of an anti-tumor drug” (priority 2016, dated 2022)
